Measurements as given in US8613929B2, “Methods and compositions for targeting agents into and across the blood-brain barrier and other endothelial cell microvascular barriers” (priority 2003, dated 2013).

What was measured:
[1] = molecular target: LPSS14 (DTR) (Bos taurus, UniProt E1BIN8); format: cell-based, bovine
[2] = tested on: brain cortex; assay: In vivo brain distribution: HRP activity in brain cortex homogenate samples; design: species or system Guinea pigs; conditions: 1.5 h after intracarotid bolus injection, 500 microgram/ml HRP equivalent in 0.5 ml saline (FIG. 18)
Experimental: Brain uptake of CRM197 or holo-transferrin (TrF) conjugated to HRP (2:1 weight/weight ratio) was determined 1.5 h after an intracarotid bolus injection of the conjugates (corresponding to a concentration of 500 microgram/ml in 0.5 ml saline of un-conjugated HRP), and compared to an equal concentration of free HRP, in young male Guinea pigs (Dunkin-Hartley HsdPoc:HD, 250-300 g). The proteins were conjugated to HRP by means of a HRP conjugation kit according to the manufacturers instructions (α Diagnostic International, San Antonio, Tex., USA). In addition, conjugated proteins were further purified on a HiPrep 16/60 column packed with Sephacryl S-200 HR matrix (Amersham Biosciences, UK). Briefly, the animals were anesthetized with isoflurane inhalation (4% induction, 1-1.5% maintenance) in an air/oxygen mixture (2:1). A cannula was placed in the carotid artery for blood sample collection and drug administration. […]
The cortex of perfused brains (and one non-perfused control brain) was dissected and weighted. […] Tissue/cells were lysed by an aqueous solution of 0.1% Na-deoxycholate (final concentration) before the HRP activity was detected in the clear supernatant of the spun-down homogenates using a standard colorimetric assay with the appropriate calibration curves and corrections for dilutions and protein content of the supernatants.

[3] = tested on: brain cortex; conditions: 1.5 h after intracarotid bolus injection (FIG. 19)
[4] = tested on: brain; conditions: guinea pig, in vivo
[5] = tested on: BCEC+ astrocyte co-cultures; conditions: FIG. 2; earlier experiments (Gaillard 2000a); cited from earlier work

Sequence of LPSS14 (DTR) (E1BIN8 24-208 limits assumed): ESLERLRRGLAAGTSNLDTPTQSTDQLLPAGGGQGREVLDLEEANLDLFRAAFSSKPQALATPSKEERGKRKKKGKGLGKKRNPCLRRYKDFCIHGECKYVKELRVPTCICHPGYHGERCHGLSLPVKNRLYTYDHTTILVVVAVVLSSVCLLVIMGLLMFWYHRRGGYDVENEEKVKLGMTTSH

heparin
toxicity consistent with a higher concentration of DT ([1]; heparin 125 microgram/ml 1 h pretreatment, 100 ng/ml DT): 10 fold | DT toxic effect took place earlier than untreated controls ([1]; heparin 125 microgram/ml 1 h pretreatment, 100 ng/ml DT (FIG. 9)): about 1 hour | toxic effect after apical exposure to 100 ng/ml DT on pretreated BCEC ([1]; pretreatment: CRM197 5 microgram/ml 1 h, heparin 125 microgram/ml 1 h, LPS 1 microgram/ml 2 h, BB94 10 micromolar 1 h (FIG. 8-10)): increased

free HRP: un-conjugated horseradish peroxidase, a 40 kDa enzyme
HRP activity in brain cortex homogenate samples (homogenate, parenchyma, capillaries) [2]: below the detection limit | TMB staining of cryosections of well-perfused brains [3]: no visible staining | staining for CRM197 by immunohistochemistry for diphtheria toxin [4]: not observed

C[C@@H]1C[C@@H]([C@H](O)CC2CC(=O)NC(=O)C2)C(=O)[C@@H](C)C1 [cycloheximide]
recovery of BCEC+ astrocyte co-cultures from LPS [5]: completely inhibit the recovery phase
